Activity calls are given as the source filed them.
What was measured:
RAW264.7 [1] = assay: Inhibition of LPS-induced NO expression in mouse RAW264.7 cells at 2 to 20 uM preincubated for 2 hr followed by LPS stimulation and measured after 24 hrs; type: functional, cell-based; conditions: dose 2-20 µM
RAW264.7 [2] = assay: Inhibition of LPS-induced pro IL-1beta expression in mouse RAW264.7 cells at 2 to 20 uM preincubated for 2 hr followed by LPS stimulation and measured after 6 hrs by Western blot analysis; type: functional, cell-based; conditions: dose 2-20 µM
RAW264.7 [3] = assay: Inhibition of NF-kappaB in mouse RAW264.7 cells assessed as reduction in LPS-induced p65 phosphorylation pre-treated for 2 hrs followed by LPS stimulation and measured after 6 hrs by Western blot analysis; type: cell-based
BMDM [4] = assay: Inhibition of LPS-induced IL-1beta secretion in mouse BMDM cells at 2 to 20 uM preincubated for 2 hr followed by LPS stimulation and measured after 4 hrs; type: functional, cell-based; conditions: dose 2-20 µM
[5] = biological target: T1, Inhibitor of nuclear factor kappa-B kinase subunit alpha (Mus musculus) (UniProt Q60680); assay: Inhibition of IKKalpha in mouse RAW264.7 cells assessed as inhibition of LPS-induced IKK-alpha phosphorylation level pre-treated for 2 hrs followed by LPS stimulation and measured after 6 hrs by Western blot analysis; type: cell-based
T1 sequence (whole entry): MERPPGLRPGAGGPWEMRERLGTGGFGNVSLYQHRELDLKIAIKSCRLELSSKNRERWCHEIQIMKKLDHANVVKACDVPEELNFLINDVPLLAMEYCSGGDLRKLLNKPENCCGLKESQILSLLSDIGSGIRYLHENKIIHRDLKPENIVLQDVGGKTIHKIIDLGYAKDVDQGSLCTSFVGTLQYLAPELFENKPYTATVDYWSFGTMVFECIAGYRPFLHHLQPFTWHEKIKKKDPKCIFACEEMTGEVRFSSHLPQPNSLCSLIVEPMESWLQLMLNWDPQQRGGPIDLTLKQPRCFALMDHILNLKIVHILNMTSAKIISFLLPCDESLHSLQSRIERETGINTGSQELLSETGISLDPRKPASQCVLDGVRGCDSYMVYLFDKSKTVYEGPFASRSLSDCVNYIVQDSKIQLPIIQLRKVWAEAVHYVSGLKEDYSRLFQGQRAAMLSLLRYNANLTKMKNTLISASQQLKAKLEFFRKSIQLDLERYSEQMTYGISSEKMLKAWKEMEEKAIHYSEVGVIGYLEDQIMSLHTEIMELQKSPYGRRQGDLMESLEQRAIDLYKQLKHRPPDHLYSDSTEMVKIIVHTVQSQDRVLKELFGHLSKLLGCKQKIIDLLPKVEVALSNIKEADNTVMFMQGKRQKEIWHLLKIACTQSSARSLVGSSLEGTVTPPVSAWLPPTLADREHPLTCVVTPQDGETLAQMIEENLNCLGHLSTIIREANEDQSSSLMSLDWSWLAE

RAW264.7 [6] = assay: Inhibition of LPS-induced IL-1beta mRNA expression in mouse RAW264.7 cells at 2 to 20 uM preincubated for 2 hr followed by LPS stimulation and measured after 6 hrs by qRT-PCR; type: functional, cell-based; conditions: dose 2-20 µM
BMDM [7] = assay: Inhibition of LPS-induced IL-1beta mRNA expression in mouse BMDM cells at 5 to 10 uM preincubated for 2 hr followed by LPS stimulation and measured after 6 hrs by qRT-PCR; type: functional, cell-based; conditions: dose 5-10 µM
RAW264.7 [8] = assay: Inhibition of LPS-induced iNOS expression in mouse RAW264.7 cells at 2 to 20 uM preincubated for 2 hr followed by LPS stimulation and measured after 6 hrs by Western blot analysis; type: functional, cell-based; conditions: dose 2-20 µM
RAW264.7 [9] = assay: Cytotoxicity against mouse RAW264.7 cells at > 50 uM; type: cell-based
RAW264.7 [10] = assay: Inhibition of MAPK signalling activation in mouse RAW264.7 cells assessed as reduction in LPS-induced p38 phosphorylation pre-treated for 2 hrs followed by LPS stimulation and measured after 6 hrs by Western blot analysis; type: cell-based

C=CC(=O)Oc1ccc(/C=C/C(=O)c2c(OC)cc3c(c2OC(=O)C=C)CCC(C)(C)O3)cc1
Non-Toxic: Activity (RAW264.7 [9])
active: inhibition (RAW264.7 [1]) | inhibition (RAW264.7 [2]) | inhibition (RAW264.7 [3]) | inhibition (BMDM [4]) | inhibition [5] | inhibition (RAW264.7 [6]) | inhibition (BMDM [7]) | inhibition (RAW264.7 [8]) | inhibition (RAW264.7 [10])

From ChEMBL document CHEMBL4819083, “Synthesis of pyranochalcone derivatives and their inhibitory effect on NF-κB activation” (Bioorg Med Chem Lett, 2021)
